Assay results published in paper PMC6017733, “Identification of Bichalcones as Sirtuin Inhibitors by Virtual Screening and In Vitro Testing” (Molecules : A Journal of Synthetic Chemistry and Natural …, 2018).

How the values were obtained:
Type in all cases: biochemical
sirt3 = target: T1, sirt3 (Homo sapiens, UniProt Q9NTG7); test: fluorescent deacetylase assay, % inhibition at […]; conditions: read-out: Sirt 3 (μM or % Inhibition)
T1 construct: sirt3_118–395 (His6-tagged)
T1 sequence (Q9NTG7 118-395): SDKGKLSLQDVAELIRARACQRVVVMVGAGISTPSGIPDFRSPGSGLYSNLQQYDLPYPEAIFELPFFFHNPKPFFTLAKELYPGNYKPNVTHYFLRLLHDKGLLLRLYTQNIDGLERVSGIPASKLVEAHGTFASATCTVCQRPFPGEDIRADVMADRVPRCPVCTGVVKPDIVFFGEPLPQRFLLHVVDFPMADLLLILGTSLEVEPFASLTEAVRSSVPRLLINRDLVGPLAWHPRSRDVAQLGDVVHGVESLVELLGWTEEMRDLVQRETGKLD

sirt2 = target: T2, sirt2 (Homo sapiens, UniProt Q8IXJ6); test: fluorescent deacetylase assay (ZMAL substrate, trypsin-coupled)
T2 sequence (Q8IXJ6 56-356): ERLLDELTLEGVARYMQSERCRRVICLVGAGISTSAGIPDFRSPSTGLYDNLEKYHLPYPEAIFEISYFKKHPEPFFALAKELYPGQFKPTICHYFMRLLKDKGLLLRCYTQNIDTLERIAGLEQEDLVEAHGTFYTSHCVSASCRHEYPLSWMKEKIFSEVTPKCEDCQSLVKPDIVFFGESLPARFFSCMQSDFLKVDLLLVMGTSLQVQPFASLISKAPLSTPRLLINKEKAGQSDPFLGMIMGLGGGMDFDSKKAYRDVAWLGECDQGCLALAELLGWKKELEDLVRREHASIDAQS

sirt1 = target: T3, sirt1 (Homo sapiens, UniProt Q96EB6); test: as above
T3 construct: sirt1_133–747 (GST-tagged)
T3 sequence (Q96EB6 133-747): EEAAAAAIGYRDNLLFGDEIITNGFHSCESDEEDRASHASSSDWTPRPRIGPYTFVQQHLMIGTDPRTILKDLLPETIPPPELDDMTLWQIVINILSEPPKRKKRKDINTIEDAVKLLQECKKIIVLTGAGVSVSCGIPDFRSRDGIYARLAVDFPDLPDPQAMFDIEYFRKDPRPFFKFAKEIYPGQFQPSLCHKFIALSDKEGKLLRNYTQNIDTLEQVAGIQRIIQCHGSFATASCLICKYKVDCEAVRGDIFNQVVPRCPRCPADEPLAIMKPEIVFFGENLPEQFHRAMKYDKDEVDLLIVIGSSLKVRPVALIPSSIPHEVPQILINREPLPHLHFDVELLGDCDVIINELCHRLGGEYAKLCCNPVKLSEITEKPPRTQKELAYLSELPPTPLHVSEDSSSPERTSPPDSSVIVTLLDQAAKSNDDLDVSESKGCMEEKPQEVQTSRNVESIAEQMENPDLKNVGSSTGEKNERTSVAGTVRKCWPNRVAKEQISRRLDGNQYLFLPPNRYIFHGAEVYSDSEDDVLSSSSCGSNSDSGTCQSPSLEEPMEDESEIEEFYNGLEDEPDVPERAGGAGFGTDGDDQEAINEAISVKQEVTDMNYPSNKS

Compound	inhibition at 50 µM (sirt3)	IC50 (sirt2)	IC50 (sirt1)
COc1cc(O)c(C(=O)/C=C/c2ccc(O)cc2)cc1Oc1ccc(C(=O)/C=C/c2ccc(O)cc2)c(O)c1 [compound 8, rhuschalcone IV]	38%	48.5 ± 39.5 µM	46.7 ± 6 µM
COc1cc(O)c(C(=O)/C=C/c2ccc(O)cc2)cc1Oc1ccc(C(=O)/C=C/c2ccc(O)cc2O)c(O)c1 [compound 9, rhuschalcone I analogue]		44.8 ± 5.1 µM	40.8 ± 8.5 µM
